These results are taken from patent publication US9855268B2, “Triazolo[4,5-d]pyrimidine derivatives” (Merck Patent GmbH, priority 2013, dated 2018).

Holding throughout (assay type): biochemical
One assay has as its target GCN2 (Homo sapiens, UniProt Q9P2K8). Briefly: GCN2 enzyme assay (TR-FRET Lanthascreen, GFP-eIF2alpha phosphorylation). The following applies: 10 μM ATP, 80 nM GFP-eIF2a, 30 nM GCN2. An outline of the steps: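 Phosphorylation of GFP-eIF2alpha (80 nM) by GCN2 run at room temperature with 10 μM ATP. After EDTA quench, product quantified by Lanthascreen TR-FRET (antibody–GFP complex, 340 nm excitation).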
Background: TR-FRET usually uses a lanthanide donor and a delayed reading to cut background.

Another assay has as its target GSK3β(h) (Homo sapiens, UniProt P49841). Put plainly: GSK3β radiometric kinase assay (33P-ATP, phospho GS2 peptide). The note with it: read-out: IC50 GSK3β (enzyme assay). As to the method: GSK3β(h) is incubated with 8 mM MOPS pH 7,0, 0,2 mM EDTA, 20 μM
[…](p)EDEEE (phosphor GS2 peptide), 10 mM Mg-acetate and [gamma-33P-ATP](specific activity approx. 500 cpm/Pmol, concentration as required). The reaction is initiated by the addition of the MgATP. After incubation for 40 minutes at the room temperature, the Reaction is stopped by the addition of 3% phosphoric acid solution. 10 μL of reaction is then spotted onto a P30 filtermat and washed three times for 5 minutes in 50 mM phosphoric acid and once in methanol prior to drying and scintillation counting.

The target of a further assay is GSK3α(h) (Homo sapiens, UniProt P49840). Briefly: GSK3α radiometric kinase assay (33P-ATP, phospho GS2 peptide). The following applies: read-out: IC50 GSK3α (enzyme assay). An outline of the steps: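 Human GSK3α incubated with 20 μM phospho-GS2 peptide in 8 mM MOPS pH 7,0, 10 mM Mg-acetate and [γ-33P]ATP (concentration as required), started with MgATP. After 40 minutes at room temperature, stopped with phosphoric acid; 33P incorporation measured by filtermat spotting and scintillation counting.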
GSK3α(h), sequence (P49840 whole entry): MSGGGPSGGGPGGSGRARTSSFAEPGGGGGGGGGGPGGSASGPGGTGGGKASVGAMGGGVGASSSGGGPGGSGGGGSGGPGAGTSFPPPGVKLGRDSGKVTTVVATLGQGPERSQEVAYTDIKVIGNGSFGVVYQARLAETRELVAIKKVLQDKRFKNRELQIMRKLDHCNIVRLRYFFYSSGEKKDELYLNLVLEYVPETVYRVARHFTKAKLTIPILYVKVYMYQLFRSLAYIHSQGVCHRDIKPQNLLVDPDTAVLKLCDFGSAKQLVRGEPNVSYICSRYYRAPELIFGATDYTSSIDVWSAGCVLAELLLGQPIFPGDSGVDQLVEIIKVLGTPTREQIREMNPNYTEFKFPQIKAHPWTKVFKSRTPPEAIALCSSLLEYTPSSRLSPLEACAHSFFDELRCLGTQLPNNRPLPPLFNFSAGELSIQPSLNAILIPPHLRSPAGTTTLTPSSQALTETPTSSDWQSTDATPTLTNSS

GCN2, sequence (Q9P2K8 whole entry, species assumed): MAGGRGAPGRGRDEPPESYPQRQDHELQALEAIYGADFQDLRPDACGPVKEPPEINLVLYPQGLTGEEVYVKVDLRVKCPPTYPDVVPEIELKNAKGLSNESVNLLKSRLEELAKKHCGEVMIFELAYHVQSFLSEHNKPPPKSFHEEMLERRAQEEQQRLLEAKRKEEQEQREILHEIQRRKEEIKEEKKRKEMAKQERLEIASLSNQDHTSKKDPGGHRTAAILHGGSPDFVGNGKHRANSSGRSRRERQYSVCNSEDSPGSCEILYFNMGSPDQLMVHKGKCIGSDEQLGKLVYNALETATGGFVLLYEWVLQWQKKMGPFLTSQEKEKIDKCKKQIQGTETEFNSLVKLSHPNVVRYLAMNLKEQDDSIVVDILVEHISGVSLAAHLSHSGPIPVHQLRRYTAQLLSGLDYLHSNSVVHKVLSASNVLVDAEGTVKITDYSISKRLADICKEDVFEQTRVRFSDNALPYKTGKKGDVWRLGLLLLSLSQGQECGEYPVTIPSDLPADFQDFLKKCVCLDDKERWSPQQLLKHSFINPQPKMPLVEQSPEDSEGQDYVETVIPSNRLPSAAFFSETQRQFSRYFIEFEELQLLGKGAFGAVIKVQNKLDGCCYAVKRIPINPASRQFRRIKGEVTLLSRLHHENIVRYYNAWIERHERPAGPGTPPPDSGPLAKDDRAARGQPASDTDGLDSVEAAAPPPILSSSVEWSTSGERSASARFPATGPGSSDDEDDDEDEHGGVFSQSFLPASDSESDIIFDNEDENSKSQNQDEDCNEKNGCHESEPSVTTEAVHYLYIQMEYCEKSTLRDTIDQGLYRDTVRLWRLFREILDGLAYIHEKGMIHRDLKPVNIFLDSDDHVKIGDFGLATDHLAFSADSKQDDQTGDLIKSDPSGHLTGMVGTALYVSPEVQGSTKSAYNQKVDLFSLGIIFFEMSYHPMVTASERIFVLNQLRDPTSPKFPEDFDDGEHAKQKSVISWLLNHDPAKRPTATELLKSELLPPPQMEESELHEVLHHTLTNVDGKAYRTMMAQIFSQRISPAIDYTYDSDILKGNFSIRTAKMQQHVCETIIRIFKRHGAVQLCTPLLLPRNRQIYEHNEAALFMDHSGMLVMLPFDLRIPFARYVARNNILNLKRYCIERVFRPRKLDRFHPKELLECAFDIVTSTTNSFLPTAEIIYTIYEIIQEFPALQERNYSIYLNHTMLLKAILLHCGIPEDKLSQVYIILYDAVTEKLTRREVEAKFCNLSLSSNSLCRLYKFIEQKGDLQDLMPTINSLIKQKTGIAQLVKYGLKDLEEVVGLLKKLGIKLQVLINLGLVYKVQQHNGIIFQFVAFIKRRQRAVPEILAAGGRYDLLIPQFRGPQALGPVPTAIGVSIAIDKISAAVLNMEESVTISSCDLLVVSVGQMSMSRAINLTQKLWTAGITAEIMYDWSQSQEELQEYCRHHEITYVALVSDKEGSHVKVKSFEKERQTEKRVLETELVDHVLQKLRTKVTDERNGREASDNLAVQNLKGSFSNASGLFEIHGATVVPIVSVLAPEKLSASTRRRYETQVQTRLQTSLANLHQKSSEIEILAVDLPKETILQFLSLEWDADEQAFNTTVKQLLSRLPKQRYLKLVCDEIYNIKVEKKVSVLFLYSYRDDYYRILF
GSK3β(h), sequence (P49841 whole entry): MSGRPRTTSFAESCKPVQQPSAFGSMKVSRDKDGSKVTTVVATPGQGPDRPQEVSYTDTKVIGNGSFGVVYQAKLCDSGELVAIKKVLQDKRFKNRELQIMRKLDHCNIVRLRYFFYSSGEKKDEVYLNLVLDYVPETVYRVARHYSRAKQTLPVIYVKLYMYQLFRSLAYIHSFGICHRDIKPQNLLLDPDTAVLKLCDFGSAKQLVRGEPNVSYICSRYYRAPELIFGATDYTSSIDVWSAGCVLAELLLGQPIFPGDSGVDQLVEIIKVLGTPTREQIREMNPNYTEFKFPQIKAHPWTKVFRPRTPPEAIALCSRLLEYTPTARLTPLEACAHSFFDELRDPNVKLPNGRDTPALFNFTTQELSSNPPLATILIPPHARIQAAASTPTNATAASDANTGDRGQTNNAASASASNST

`N#CCCn1cc(-c2ccc(-n3nnc4cnc(N[C@@H]5CC[C@@H](C(N)=O)C5)nc43)cc2)cn1` [A217, (1R,3R)-3-(3-{4-[1-(2-cyano-ethyl)-1H-pyrazol-4-yl]-phenyl}-3H-[1,2,3]triazolo[4,5-d]pyrimidin-5-ylamino)-cyclopentanecarboxylic acid amide]: the IC50 against GCN2, on GSK3β(h) and at GSK3α(h) was < 1 µM in each case.

`COCCn1cc(-c2ccc(-n3nnc4cnc(N[C@@H]5CC[C@@H](C(N)=O)C5)nc43)nc2)cn1` [A219, (1R,3R)-3-(3-{5-[1-(2-methoxy-ethyl)-1H-pyrazol-4-yl]-pyridin-2-yl}-3H-[1,2,3]triazolo[4,5-d]pyrimidin-5-ylamino)-cyclopentanecarboxylic acid amide]: the concentration for half-maximal inhibition (IC50) was 1 to 5 µM on GCN2, < 1 µM at GSK3β(h) and < 1 µM at GSK3α(h).

For the molecule `COCCn1cc(-c2cccc(-n3nnc4cnc(N[C@@H]5CC[C@@H](C(N)=O)C5)nc43)c2)cn1` [A222, (1R,3R)-3-(3-{3-[1-(2-methoxy-ethyl)-1H-pyrazol-4-yl]-phenyl}-3H-[1,2,3]triazolo[4,5-d]pyrimidin-5-ylamino)-cyclopentanecarboxylic acid amide], the concentration for half-maximal inhibition (IC50) against GCN2, on GSK3β(h) and at GSK3α(h) was < 1 µM in each case.

With `CCOCCn1cc(-c2ccc(-n3nnc4cnc(N[C@@H]5CC[C@@H](C(N)=O)C5)nc43)cn2)cn1` [A229, (1R,3R)-3-(3-{6-[1-(2-ethoxy-ethyl)-1H-pyrazol-4-yl]-pyridin-3-yl}-3H-[1,2,3]triazolo[4,5-d]pyrimidin-5-ylamino)-cyclopentanecarboxylic acid amide], the concentration for half-maximal inhibition (IC50) on GCN2, on GSK3β(h) and at GSK3α(h) was < 1 µM each time.

Regarding `CC(C)(O)Cn1cc(-c2ccc(-n3nnc4cnc(N[C@@H]5CC[C@@H](C(N)=O)C5)nc43)cc2)cn1` [A233, (1R,3R)-3-(3-{4-[1-(2-hydroxy-2-methyl-propyl)-1H-pyrazol-4-yl]-phenyl}-3H-[1,2,3]triazolo[4,5-d]pyrimidin-5-ylamino)-cyclopentanecarboxylic acid amide], the IC50 against GCN2, at GSK3β(h) and at GSK3α(h) was < 1 µM in each case.

On to `NC(=O)[C@@H]1CC[C@@H](Nc2ncc3nnn(-c4ccc(-c5cnn(CCn6ncccc6=O)c5)cc4)c3n2)C1` [A237, (1R,3R)-3-[3-(4-{1-[2-(6-oxo-6H-pyridazin-1-yl)-ethyl]-1H-pyrazol-4-yl}-phenyl)-3H-[1,2,3]triazolo[4,5-d]pyrimidin-5-ylamino]-cyclopentanecarboxylic acid amide], for which the IC50 against GCN2, on GSK3β(h) and at GSK3α(h) was < 1 µM in each case.

As for `CS(=O)(=O)N1CC[C@@H](Nc2ncc3nnn(-c4ccc5ncccc5c4)c3n2)C1` [A269, ((R)-1-methanesulfonyl-pyrrolidin-3-yl)-(3-quinolin-6-yl-3H-[1,2,3]triazolo[4,5-d]pyrimidin-5-yl)-amine], the IC50 against GCN2, on GSK3β(h) and on GSK3α(h) was < 1 µM each time.

With `NC(=O)[C@@H]1CC[C@@H](Nc2ncc3nnn(-c4ccc(OCC5CCNCC5)cc4)c3n2)C1` [A279, (1R,3R)-3-{3-[4-(piperidin-4-ylmethoxy)-phenyl]-3H-[1,2,3]triazolo[4,5-d]pyrimidin-5-ylamino}-cyclopentanecarboxylic acid amide], the 50% inhibitory concentration (IC50) against GCN2, on GSK3β(h) and at GSK3α(h) was < 1 µM in each case.

As for `CCOc1ccc(-n2nnc3cnc(N[C@@H]4CC[C@@H](c5nnc(C)o5)C4)nc32)cc1` [A281, [3-(4-ethoxy-phenyl)-3H-[1,2,3]triazolo[4,5-d]pyrimidin-5-yl]-[(1R,3R)-3-(5-methyl-[1,3,4]oxadiazol-2-yl)-cyclopentyl]-amine], the IC50 on GCN2, at GSK3β(h) and on GSK3α(h) was < 1 µM throughout.

One may read the IC50 as the midpoint of a concentration-inhibition curve.
